Reference: patent US20230147257A1 (DONG-A ST CO., LTD., priority 2020, published 2023)
Like-named read-outs stand apart in the source and are kept apart here.

Assays:
AhR [1] = biological target: T1, AhR (Homo sapiens, UniProt P35869); assay: In vitro assay 1: XRE-luciferase reporter assay, antagonism in human cell line (HepG2); format: cell-based; conditions: HepG2 XRE-luciferase, 6 hours, read-out: Assay 1: AhR-Luc Human Antagonism (IC50)
T1 construct: host or cells: HepG2
T1 sequence (P35869 11-848): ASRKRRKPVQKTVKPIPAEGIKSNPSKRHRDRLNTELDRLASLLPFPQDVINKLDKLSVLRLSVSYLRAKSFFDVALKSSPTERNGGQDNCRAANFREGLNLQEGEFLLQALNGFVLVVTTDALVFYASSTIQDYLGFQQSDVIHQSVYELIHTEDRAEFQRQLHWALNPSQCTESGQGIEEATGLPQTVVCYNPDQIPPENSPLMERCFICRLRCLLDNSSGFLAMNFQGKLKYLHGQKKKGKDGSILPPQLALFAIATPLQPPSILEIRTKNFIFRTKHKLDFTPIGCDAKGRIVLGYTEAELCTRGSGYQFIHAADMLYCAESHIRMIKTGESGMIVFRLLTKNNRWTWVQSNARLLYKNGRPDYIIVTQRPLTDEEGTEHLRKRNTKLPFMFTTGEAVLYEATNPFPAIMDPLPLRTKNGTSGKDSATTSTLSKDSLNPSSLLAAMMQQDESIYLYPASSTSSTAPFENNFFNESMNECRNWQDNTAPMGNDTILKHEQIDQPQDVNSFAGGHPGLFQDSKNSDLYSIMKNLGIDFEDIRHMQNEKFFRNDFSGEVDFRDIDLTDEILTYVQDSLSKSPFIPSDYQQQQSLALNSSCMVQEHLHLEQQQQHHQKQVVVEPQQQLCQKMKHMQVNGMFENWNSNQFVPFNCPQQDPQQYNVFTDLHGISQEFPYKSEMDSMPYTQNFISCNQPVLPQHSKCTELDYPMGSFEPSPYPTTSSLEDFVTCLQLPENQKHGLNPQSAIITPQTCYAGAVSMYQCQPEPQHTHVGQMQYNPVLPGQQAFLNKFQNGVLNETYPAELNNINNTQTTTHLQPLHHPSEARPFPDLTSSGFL
Outline: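 HepG2 cells carrying XRE-firefly luciferase (transient or stable) plus constitutive Nano-Luc control, stimulated 6 h with kynurenine (50 or 200 μM) with or without compound. Firefly/Nano-Luc ratio normalized to kynurenine-alone (maximum) and vehicle (minimum); IC50 by four-parameter nonlinear regression.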

AhR [2] = biological target: T1, AhR; assay: In vitro assay 3: XRE-luciferase reporter assay, agonism in human cell line (HepG2); format: cell-based; conditions: HepG2 XRE-Luc, tryptophan free medium, test compound alone, 6 hours
Excerpt: In Vitro XRE-Luciferase Reporter Assay (In Vitro Assay 1, 2, 3)
AhR activation leads the induction of target gene expression such as CYP1A1 and CYP1B1 by AhR binding to AhR-responsive DNA elements also known as xenobiotics responsive elements (XRE). The assay for measuring AhR activity herein is the luciferase assay using cell lines transfected with luciferase reporter plasmid containing XREs at the upstream of the reporter gene. Cells transfected with XRE-luciferase reporter (XRE-Luc) plasmid drive luciferase activity reflecting activation and inhibition of AhR in the cells. In addition to transfection with XRE-reporter vector, cells were co-transfected with Nano-luciferase reporter gene construct (Nano-Luc) containing constitutively active promoter as internal control. Kynurenine (an endogenous AhR agonist) was used to stimulate cells to test antagonistic properties of the compounds. The half-maximal inhibitory concentration (IC50) or half-maximal effective concentration (EC50) value was calculated using nonlinear regression (four parameters) with Prism8.0 software (GraphPad).
In Vitro Assay 3: Agonism in Human Cell Line
HepG2 (human hepatoma cell line) cells co-transfected with XRE-Luc and Nano-Luc plasmids were plated in tryptophan free medium containing 1% of dialyzed fetal bovine serum and incubated overnight at 37° C. in a CO2 incubator. After 24 hours, cells were treated for 6 hours with test compounds or not. Firefly luciferase and Nano-luciferase activity was measured using Nano-glo Luciferase kit (Promega) and relative luciferase activity (Firefly/Nano-Luc) was used to calculate EC50 values. As a positive control, cells were incubated with TCDD. (EC50 Values are grouped as A, B, C and D, whereby A: EC50<0.1 μM; B: 0.1<EC50<1.0 μM; C: 1.0<EC50<10 μM; D: EC50>10 μM)

[3] = cells treated with kynurenine 50 μM (*)
[4] = read-out: Assay 3: AhR-Luc Human Agonism (EC50)
[5] = read-out: Assay 3: AhR-Luc Human Agonism (EC50, nM), class in brackets
[6] = cells treated with kynurenine 200 μM (no *)

An IC50 (AhR [1]; [3]) of less than 10 nM, an EC50 (AhR [2]; [4]) greater than 30000 nM and an EC50 (AhR [2]; [5]) greater than 10000 nM were found for CC(CO)n1cnc2c(-c3cccnc3)nc(-c3ccc(C(F)(F)F)cc3)cc2c1=O (stereo not shown) [Example 44, 3-(1-hydroxypropan-2-yl)-8-(pyridin-3-yl)-6-(4-(trifluoromethyl)phenyl)pyrido[3,4-d]pyrimidin-4(3H)-one] in this work.
An IC50 (AhR [1]; [3]) of less than 10 nM and an EC50 (AhR [2]; [4]) of 290 nM were found for CCC(CO)n1cnc2c(-c3cnn(C)c3)nc(-c3ccc(Cl)cc3)cc2c1=O (stereo not shown) [Example 52, 6-(4-chlorophenyl)-3-(1-hydroxybutan-2-yl)-8-(1-methyl-1H-pyrazol-4-yl)pyrido[3,4-d]pyrimidin-4(3H)-one] in this work.
An IC50 (AhR [1]; [3]) of less than 10 nM, an EC50 (AhR [2]; [4]) greater than 30000 nM and an EC50 (AhR [2]; [5]) greater than 10000 nM were found for CC(O)Cn1cnc2c(-c3cnn(C)c3)nc(-c3ccc(C(F)(F)F)nc3)cc2c1=O (stereo not shown) [Example 14, 3-(2-hydroxypropyl)-8-(1-methyl-1H-pyrazol-4-yl)-6-(6-(trifluoromethyl)pyridin-3-yl)pyrido[3,4-d]pyrimidin-4(3H)-one] in this work.
An IC50 (AhR [1]; [3]) of less than 10 nM, an EC50 (AhR [2]; [4]) greater than 30000 nM and an EC50 (AhR [2]; [5]) greater than 10000 nM were found for CC(CO)N1CNc2c(cc(-c3ccc(C(F)(F)F)cc3)nc2-c2cnn(C)c2)C1=O (stereo not shown) [Example 59, 3-(1-hydroxypropan-2-yl)-8-(1-methyl-1H-pyrazol-4-yl)-6-(4-(trifluoromethyl)phenyl)-2,3-dihydropyrido[3,4-d]pyrimidin-4(1H)-one] in this work.
An IC50 (AhR [1]; [3]) of less than 10 nM, an EC50 (AhR [2]; [4]) greater than 30000 nM and an EC50 (AhR [2]; [5]) greater than 10000 nM were found for CC(CO)n1cnc2c(-c3cnn(C)c3)nc(-c3ccc(Cl)cc3)cc2c1=O (stereo not shown) [Example 48, 6-(4-chlorophenyl)-3-(1-hydroxypropan-2-yl)-8-(1-methyl-1H-pyrazol-4-yl)pyrido[3,4-d]pyrimidin-4(3H)-one] in this work.
An IC50 (AhR [1]; [6]) of less than 10 nM, an EC50 (AhR [2]; [4]) greater than 30000 nM and an EC50 (AhR [2]; [5]) greater than 10000 nM were found for CS(=O)(=O)N1CCC(n2cnc3c(-c4cccnc4)nc(-c4ccc(Cl)cc4)cc3c2=O)CC1 [Example 94, 6-(4-chlorophenyl)-3-(1-(methylsulfonyl)piperidin-4-yl)-8-(pyridin-3-yl)pyrido[3,4-d]pyrimidin-4(3H)-one] in this work.
An IC50 (AhR [1]; [6]) of less than 10 nM, an EC50 (AhR [2]; [4]) greater than 30000 nM and an EC50 (AhR [2]; [5]) greater than 10000 nM were found for CC(CNS(C)(=O)=O)n1cnc2c(-c3cccnc3)nc(-c3ccc(Cl)cc3)cc2c1=O (stereo not shown) [Example 89, N-(2-(6-(4-chlorophenyl)-4-oxo-8-(pyridin-3-yl)pyrido[3,4-d]pyrimidin-3(4H)-yl)propyl)methanesulfonamide] in this work.
An IC50 (AhR [1]; [6]) of less than 10 nM, an EC50 (AhR [2]; [4]) greater than 30000 nM and an EC50 (AhR [2]; [5]) greater than 10000 nM were found for O=c1c2cc(-c3ccc(Cl)cc3)nc(-c3cccnc3)c2ncn1C1CCN(S(=O)(=O)C2CC2)CC1 [Example 95, 6-(4-chlorophenyl)-3-(1-(cyclopropylsulfonyl)piperidin-4-yl)-8-(pyridin-3-yl)pyrido[3,4-d]pyrimidin-4(3H)-one] in this work.
An IC50 (AhR [1]; [3]) of less than 10 nM and an EC50 (AhR [2]; [4]) of 4480 nM were found for O=c1c2cc(-c3ccc(C(F)(F)F)cc3)nc(-c3cccnc3)c2ncn1[C@H]1CC[C@H](O)CC1 [Example 57, 3-((1r,4r)-4-hydroxycyclohexyl)-8-(pyridin-3-yl)-6-(4-(trifluoromethyl)phenyl)pyrido[3,4-d]pyrimidin-4(3H)-one] in this work.
An IC50 (AhR [1]; [3]) greater than 1000 nM, an EC50 (AhR [2]; [4]) greater than 30000 nM and an EC50 (AhR [2]; [5]) greater than 10000 nM were found for CC(CO)n1cnc2c(-c3cnn(C)c3)nc(-c3cnn(C)c3)cc2c1=O (stereo not shown) [Example 3, 3-(1-hydroxypropan-2-yl)-6,8-bis(1-methyl-1H-pyrazol-4-yl)pyrido[3,4-d]pyrimidin-4(3H)-one] in this work.
An IC50 (AhR [1]; [3]) of less than 10 nM, an EC50 (AhR [2]; [4]) greater than 30000 nM and an EC50 (AhR [2]; [5]) greater than 10000 nM were found for Cn1cc(-c2nc(-c3ccc(Cl)cc3)cc3c(=O)n([C@H]4CC[C@H](O)CC4)cnc23)cn1 [Example 10, 6-(4-chlorophenyl)-3-((1r,4r)-4-hydroxycyclohexyl)-8-(1-methyl-1H-pyrazol-4-yl)pyrido[3,4-d]pyrimidin-4(3H)-one] in this work.
An IC50 (AhR [1]; [3]) of less than 10 nM and an EC50 (AhR [2]; [4]) of 2050 nM were found for CC(CO)n1cnc2c(-c3cccnc3)nc(-c3ccc(C(F)(F)F)nc3)cc2c1=O (stereo not shown) [Example 50, 3-(1-hydroxypropan-2-yl)-8-(pyridin-3-yl)-6-(6-(trifluoromethyl)pyridin-3-yl)pyrido[3,4-d]pyrimidin-4(3H)-one] in this work.
An IC50 (AhR [1]; [3]) of less than 10 nM and an EC50 (AhR [2]; [4]) of 1370 nM were found for CCC(CO)n1cnc2c(-c3cccc(F)c3)nc(-c3ccc(Cl)cc3)cc2c1=O (stereo not shown) [Example 55, 6-(4-chlorophenyl)-8-(3-fluorophenyl)-3-(1-hydroxybutan-2-yl)pyrido[3,4-d]pyrimidin-4(3H)-one] in this work.
An IC50 (AhR [1]; [6]) of less than 10 nM, an EC50 (AhR [2]; [4]) greater than 30000 nM and an EC50 (AhR [2]; [5]) greater than 10000 nM were found for CS(=O)(=O)CCn1cnc2c(-c3cccnc3)nc(-c3ccc(C(F)(F)F)cc3)cc2c1=O [Example 76, 3-(2-(methylsulfonyl)ethyl)-8-(pyridin-3-yl)-6-(4-(trifluoromethyl)phenyl)pyrido[3,4-d]pyrimidin-4(3H)-one] in this work.
An IC50 (AhR [1]; [3]) of less than 10 nM and an EC50 (AhR [2]; [4]) of 9660 nM were found for CC(CO)n1cnc2c(-c3cccnc3)nc(-c3ccc(OC(F)(F)F)cc3)cc2c1=O (stereo not shown) [Example 49, 3-(1-hydroxypropan-2-yl)-8-(pyridin-3-yl)-6-(4-(trifluoromethoxy)phenyl)pyrido[3,4-d]pyrimidin-4(3H)-one] in this work.
An IC50 (AhR [1]; [6]) of less than 10 nM, an EC50 (AhR [2]; [4]) greater than 30000 nM and an EC50 (AhR [2]; [5]) greater than 10000 nM were found for O=c1c2cc(-c3ccc(Cl)cc3)nc(-c3cccnc3)c2ncn1CC(O)CO (stereo not shown) [Example 67, 6-(4-chlorophenyl)-3-(2,3-dihydroxypropyl)-8-(pyridin-3-yl)pyrido[3,4-d]pyrimidin-4(3H)-one] in this work.
An IC50 (AhR [1]; [3]) of less than 10 nM, an EC50 (AhR [2]; [4]) greater than 30000 nM and an EC50 (AhR [2]; [5]) greater than 10000 nM were found for Cn1cc(-c2nc(-c3ccc(C(F)(F)F)cc3)cc3c(=O)n(C4CCCC(O)C4)cnc23)cn1 (stereo not shown) [Example 1, 3-(3-hydroxycyclohexyl)-8-(1-methyl-1H-pyrazol-4-yl)-6-(4-(trifluoromethyl)phenyl)pyrido[3,4-d]pyrimidin-4(3H)-one] in this work.
An IC50 (AhR [1]; [6]) of less than 10 nM, an EC50 (AhR [2]; [4]) greater than 30000 nM and an EC50 (AhR [2]; [5]) greater than 10000 nM were found for CS(=O)(=O)CCn1cnc2c(-c3cccnc3)nc(-c3ccc(Cl)cc3)cc2c1=O [Example 77, 6-(4-chlorophenyl)-3-(2-(methylsulfonyl)ethyl)-8-(pyridin-3-yl)pyrido[3,4-d]pyrimidin-4(3H)-one] in this work.
An IC50 (AhR [1]; [6]) of 10 to 100 nM, an EC50 (AhR [2]; [4]) greater than 30000 nM and an EC50 (AhR [2]; [5]) greater than 10000 nM were found for O=c1c2cc(-c3ccc(Cl)nc3)nc(-c3cccnc3)c2ncn1[C@@H]1CC[C@H](O)C1 [Example 71, 6-(6-chloropyridin-3-yl)-3-((1R,3S)-3-hydroxycyclopentyl)-8-(pyridin-3-yl)pyrido[3,4-d]pyrimidin-4(3H)-one] in this work.
An IC50 (AhR [1]; [3]) of less than 10 nM, an EC50 (AhR [2]; [4]) greater than 30000 nM and an EC50 (AhR [2]; [5]) greater than 10000 nM were found for Cn1cc(-c2nc(-c3ccc(C(F)(F)F)cc3)cc3c(=O)n([C@H]4CC[C@H](O)CC4)cnc23)cn1 [Example 8, 3-((1r,4r)-4-hydroxycyclohexyl)-8-(1-methyl-1H-pyrazol-4-yl)-6-(4-(trifluoromethyl)phenyl)pyrido[3,4-d]pyrimidin-4(3H)-one] in this work.
An IC50 (AhR [1]; [6]) of less than 10 nM, an EC50 (AhR [2]; [4]) greater than 30000 nM and an EC50 (AhR [2]; [5]) greater than 10000 nM were found for O=c1c2cc(-c3ccc(N4CCOCC4)cc3)nc(-c3cccnc3)c2ncn1CC(O)CO (stereo not shown) [Example 82, 3-(2,3-dihydroxypropyl)-6-(4-morpholinophenyl)-8-(pyridin-3-yl)pyrido[3,4-d]pyrimidin-4(3H)-one] in this work.
